Here are results for one molecule from patent US20230108093A1, “METHODS FOR PREDICTING AND TREATING LAMENESS” (Novus International, Inc., priority 2021, published 2023).

The test system of the assay is barrows. The assay can be described thus: Fast growth study (Example 2): average daily growth, gait score, lameness incidence. Type of assay: in vivo, pig. The conditions noted are these: pigs fed RAC 10 ppm last 25 days, regardless of diet. How it is done:
A study was conducted in 144 healthy barrows, in which serum biomarkers were measured over 69 days at day 0, day 28, and day 69. Fast growth was induced in some pigs as explained below.
The study was a 2×2 factorial study. The first factor was diet. Pigs were fed either inorganic trace minerals (ITM) or Mintrex° (MTX), an organic mineral. The ITM included a ratio of 120-20-40 ppm Zn—Cu—Mn. The MTX included a ratio of 80-10-20 ppm Zn—Cu—Mn.
The second factor was feeding ractopamine (RAC; a beta-adrenergic agonist) to induce fast growth. Pigs were fed ractopamine at either 0 ppm or 10 ppm during the last 25 days of the trial.

Regarding `CC(CCc1ccc(O)cc1)NCC(O)c1ccc(O)cc1` (racemic) [RAC, ractopamine], the “ADG (average daily growth)” value is “increased”.
